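Briefly, cells in 96-well plates were exposed to five compound concentrations for 48 h, and endpoints were estimated by linear interpolation. GI50 = concentration required for 50% inhibition of growth.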 Calls of active or inactive are those of the source. No stated cut-off is given here; in the data, active = GI50 up to about 1.1 µM and inactive = higher.
Experiments:
Test in all cases: NCI anticancer screen, dose series, 48 h
[1] = system: MOLT-4
[2] = system: COLO 205
[3] = system: ACHN
[4] = system: HT-29
[5] = system: SK-MEL-28
[6] = system: KM12
[7] = system: SW-620
[8] = system: NCI-H23
[9] = system: RXF 393
[10] = system: Malme-3M
[11] = system: SK-MEL-2
[12] = system: HCT-15
[13] = system: HCC 2998
[14] = system: MDA-MB-435
[15] = system: UACC-62
[16] = system: UACC-257
[17] = system: PC-3
[18] = system: SNB-19
[19] = system: UO-31
[20] = system: HL-60

SMILES | GI50 [1] | GI50 [2] | GI50 [3] | GI50 [4] | GI50 [5] | GI50 [6] | GI50 [7] | GI50 [8] | GI50 [9] | GI50 [10] | GI50 [11] | GI50 [12] | GI50 [13] | GI50 [14] | GI50 [15] | GI50 [16] | GI50 [17] | GI50 [18] | GI50 [19] | GI50 [20]
O=C1C2=Cc3ccccc3OC2(O)Oc2cc(O)cc(O)c21 (centres undefined) | > 100 µM (inactive) | > 100 µM (inactive) | > 100 µM (inactive) | > 100 µM (inactive) | > 100 µM (inactive) | > 100 µM (inactive) | > 100 µM (inactive) | 59.2 µM (inactive) | > 100 µM (inactive) | > 100 µM (inactive) | > 100 µM (inactive) | > 10 µM | > 100 µM (inactive) | > 100 µM (inactive) | 71.8 µM (inactive) | > 100 µM (inactive) | > 100 µM (inactive) |  |  | 
Cc1csc(NCc2ccc(Cl)cc2)n1 | 35.9 µM (inactive) | 24.1 µM (inactive) | 70.1 µM (inactive) | 47.1 µM (inactive) | 85.1 µM (inactive) | 56.1 µM (inactive) | 69.7 µM (inactive) | 32.3 µM (inactive) | 25.4 µM (inactive) | 45.1 µM (inactive) | 50.9 µM (inactive) | 39.1 µM |  | 52.2 µM (inactive) |  | 67.8 µM (inactive) | 37.8 µM (inactive) | 75.2 µM (inactive) | 37.4 µM (inactive) | 33.1 µM (inactive)
COc1ccc(/N=N/c2c(C)c(C#N)c(=S)n(C3OC(CO)C(O)C(O)C3O)c2C)cc1 (centres undefined) | 21.8 µM (inactive) | 58.3 µM (inactive) | 36.4 µM (inactive) | 37.9 µM (inactive) | 30.8 µM (inactive) | 73.1 µM (inactive) | 44.1 µM (inactive) | 35.6 µM (inactive) | > 100 µM (inactive) |  | 71.3 µM (inactive) | 53.1 µM |  | 38.8 µM (inactive) | 30.4 µM (inactive) | 71.9 µM (inactive) | 31.5 µM (inactive) | 38.3 µM (inactive) | 41.9 µM (inactive) | 38.3 µM (inactive)
C#CCOC(=O)c1ccccc1OC(C)=O | > 100 µM (inactive) | > 100 µM (inactive) | > 100 µM (inactive) |  |  | > 100 µM (inactive) | > 100 µM (inactive) | > 100 µM (inactive) | > 100 µM (inactive) |  | > 100 µM (inactive) | > 100 µM |  | > 100 µM (inactive) | > 100 µM (inactive) | > 100 µM (inactive) | > 100 µM (inactive) | > 100 µM (inactive) | > 100 µM (inactive) | > 100 µM (inactive)
Nc1nc2c(=O)c3ccccc3sc2s1 | 47.4 µM (inactive) | 96.4 µM (inactive) | 45.5 µM (inactive) | 54.8 µM (inactive) | > 100 µM (inactive) | > 100 µM (inactive) | > 100 µM (inactive) | 48.5 µM (inactive) | 39.8 µM (inactive) |  | > 100 µM (inactive) | 34.5 µM |  | > 100 µM (inactive) | 26.6 µM (inactive) | 54.2 µM (inactive) | 60 µM (inactive) | 41.9 µM (inactive) | 35.6 µM (inactive) | 28.9 µM (inactive)
Sc1nnc(SCc2ccccc2Cl)c2nc[nH]c12 | > 100 µM (inactive) | > 100 µM (inactive) | > 100 µM (inactive) | > 100 µM (inactive) | > 100 µM (inactive) | > 100 µM (inactive) | > 100 µM (inactive) | > 100 µM (inactive) | > 100 µM (inactive) | > 100 µM (inactive) | > 100 µM (inactive) | > 100 µM |  | > 100 µM (inactive) | > 100 µM (inactive) | > 100 µM (inactive) | > 100 µM (inactive) | > 100 µM (inactive) | > 100 µM (inactive) | > 100 µM (inactive)
FC(F)(Sc1ccccc1)c1nc2ccccc2o1 | 13.8 µM (inactive) | > 100 µM (inactive) | 47.4 µM (inactive) | 33.6 µM (inactive) | > 100 µM (inactive) | 57 µM (inactive) | 61.1 µM (inactive) | 91 µM (inactive) | 28.5 µM (inactive) | 51.1 µM (inactive) | 67.8 µM (inactive) | 22 µM | 43.3 µM (inactive) | 95.3 µM (inactive) | 67.8 µM (inactive) | > 100 µM (inactive) | 35.5 µM (inactive) |  | 49 µM (inactive) | 
CC(=O)O[C@H]1CC[C@@]2(C)C(=CC[C@@H]3[C@@H]2CC[C@](C)(c2nnc(C)o2)[C@H]3CC#N)C1 | > 100 µM (inactive) | > 100 µM (inactive) | > 100 µM (inactive) | > 100 µM (inactive) |  | > 100 µM (inactive) | > 100 µM (inactive) | > 100 µM (inactive) | > 100 µM (inactive) | > 100 µM (inactive) | > 100 µM (inactive) | > 100 µM |  | > 100 µM (inactive) | > 100 µM (inactive) | > 100 µM (inactive) | > 100 µM (inactive) | > 100 µM (inactive) | > 100 µM (inactive) | 61.9 µM (inactive)
Cn1c(=O)cc(Nc2ccc(N)cc2)[nH]c1=O | > 100 µM (inactive) | > 100 µM (inactive) | > 100 µM (inactive) | > 100 µM (inactive) | > 100 µM (inactive) | > 100 µM (inactive) | > 100 µM (inactive) | > 100 µM (inactive) | > 100 µM (inactive) | > 100 µM (inactive) | > 100 µM (inactive) | > 100 µM | > 100 µM (inactive) | > 100 µM (inactive) | > 100 µM (inactive) | > 100 µM (inactive) | > 100 µM (inactive) | > 100 µM (inactive) | > 100 µM (inactive) | 
CC1CC(c2ccccc2)Nc2nc3ccccc3n21 (centres undefined) | > 100 µM (inactive) | > 100 µM (inactive) | > 100 µM (inactive) | 39.1 µM (inactive) | > 100 µM (inactive) | > 100 µM (inactive) | > 100 µM (inactive) | > 100 µM (inactive) | > 100 µM (inactive) | > 100 µM (inactive) | > 100 µM (inactive) | > 100 µM |  | > 100 µM (inactive) | > 100 µM (inactive) | > 100 µM (inactive) | > 100 µM (inactive) | > 100 µM (inactive) | 59.8 µM (inactive) | > 100 µM (inactive)
COC(=O)C/N=C1\NC(=S)N(Cc2ccc(OC)cc2)C12CCCC2 | > 100 µM (inactive) | > 100 µM (inactive) | > 100 µM (inactive) | > 100 µM (inactive) | > 100 µM (inactive) | > 100 µM (inactive) | > 100 µM (inactive) | > 100 µM (inactive) | > 100 µM (inactive) | > 100 µM (inactive) | > 100 µM (inactive) | > 100 µM | > 100 µM (inactive) | > 100 µM (inactive) | > 100 µM (inactive) | > 100 µM (inactive) | > 100 µM (inactive) | > 100 µM (inactive) | > 100 µM (inactive) | 
COc1ccc(NC(=O)N(C)CC2(O)CCC(C(C)(C)C)CC2)cc1 (centres undefined) | 52.6 µM (inactive) | 36.1 µM (inactive) | > 100 µM (inactive) | 32.5 µM (inactive) | > 100 µM (inactive) | 42.7 µM (inactive) | > 100 µM (inactive) | 99.3 µM (inactive) | 24.8 µM (inactive) | 24.8 µM (inactive) | 63.8 µM (inactive) | 61.7 µM |  | 57.1 µM (inactive) | 35.5 µM (inactive) | 33.9 µM (inactive) | 14.7 µM (inactive) | > 100 µM (inactive) | 30.6 µM (inactive) | 63.5 µM (inactive)
Cc1ccc(/C=C/c2n[nH]c(N/N=C/c3ccc4c(c3)OCO4)nc2=O)cc1 | 39.9 µM (inactive) | 74.3 µM (inactive) | 25.2 µM (inactive) | 24 µM (inactive) | 16 µM (inactive) | 17.3 µM (inactive) | 19.5 µM (inactive) | 15.4 µM (inactive) | 27.2 µM (inactive) | 3.28 µM (inactive) | 30.8 µM (inactive) | 44.9 µM | 22.3 µM (inactive) | 33.4 µM (inactive) |  | 40.1 µM (inactive) | 21 µM (inactive) | 18.5 µM (inactive) | 88.7 µM (inactive) | 
CC(C)(C)N1NC1C1NN1C(C)(C)C (centres undefined) | > 100 µM (inactive) | > 100 µM (inactive) | > 100 µM (inactive) | > 100 µM (inactive) | > 100 µM (inactive) | > 100 µM (inactive) | > 100 µM (inactive) | > 100 µM (inactive) | > 100 µM (inactive) | > 100 µM (inactive) | > 100 µM (inactive) | > 100 µM | > 100 µM (inactive) | > 100 µM (inactive) | > 100 µM (inactive) | > 100 µM (inactive) | > 100 µM (inactive) | > 100 µM (inactive) | > 100 µM (inactive) | 
O=c1c2cc(Br)cc(Br)c2[nH]c(=S)n1-c1ccc(/N=N/c2ccc(O)c3cccnc23)cc1 | 24.8 µM (inactive) | 32.1 µM (inactive) | 25.4 µM (inactive) | 39.6 µM (inactive) | 76.9 µM (inactive) | > 100 µM (inactive) | 29.8 µM (inactive) |  | 55.2 µM (inactive) | 18.7 µM (inactive) | > 100 µM (inactive) |  |  | 35.4 µM (inactive) |  | 50.5 µM (inactive) | 39.9 µM (inactive) | 19.7 µM (inactive) | 34.9 µM (inactive) | 38.1 µM (inactive)
CCCC(=O)C1=C(O)C(Cc2c(O)c(C)c(O)c(C(=O)CCC)c2O)=C(O)C(C)(C)C1=O | 11 µM (inactive) | 19.4 µM (inactive) | > 50 µM (inactive) | 20.4 µM (inactive) | 16.2 µM (inactive) | 23.8 µM (inactive) | 13.9 µM (inactive) | 15.8 µM (inactive) | 17 µM (inactive) |  | 22.4 µM (inactive) | 20 µM | 10.9 µM (inactive) | > 50 µM (inactive) | > 50 µM (inactive) | > 50 µM (inactive) | 19.1 µM (inactive) | 20.7 µM (inactive) | 15.6 µM (inactive) | 
